According to US6160004A, “C-10 carbon-substituted artemisinin-like trioxane compounds having antimalarial, antiproliferative and antitumor activities” (priority 1998, dated 2000):

Assays:
[1] = cited from earlier work
PE cells = assay: Viability by trypan blue exclusion; format: cell-based, murine (SENCAR mice); conditions: 96 hours
[2] = rat liver microsomes; cited from earlier work
HOP-62 = assay: cells; format: cell-based; conditions: Homo sapiens; HOP-62, non-small cell lung cancer, 48 h; read-out: Log10 TGI (converted)
K-562 = assay: cells; format: cell-based; conditions: Homo sapiens, K562; K-562, leukemia, 48 h; read-out: Log10 TGI (converted)
HCT-116 = assay: cells; format: cell-based; conditions: Homo sapiens, HCT-116, 48 h
CCRF-CEM = assay: cells; format: cell-based; conditions: Homo sapiens, leukemia, 48 h, read-out: Log10 TGI
MDA-MB231/ATCC = assay: cells; format: cell-based; conditions: Homo sapiens, MDA-MB-231, breast cancer, 48 h, read-out: Log10 TGI (converted)
UACC-257 = assay: cells; format: cell-based; conditions: Homo sapiens, UACC-257, 48 h; read-out: Log10 TGI (converted)
M14 = assay: NCI 60 cell line panel screening assay (SRB), M14; conditions: Homo sapiens, M14, 48 h, read-out: Log10 TGI
PC-3 = assay: cells; format: cell-based; conditions: Homo sapiens; PC-3, prostate cancer, 48 h; read-out: Log10 TGI
OVCAR-4 = assay: cells; format: cell-based; conditions: Homo sapiens, OVCAR-4, 48 h
HCT-15 = assay: cells; format: cell-based; conditions: Homo sapiens, HCT-15, colon cancer, 48 h
MCF7/ADR-RES = assay: cells; format: cell-based; conditions: Homo sapiens; MCF7/ADR-RES, breast cancer, 48 h; read-out: Log10 TGI
SN12C = assay: NCI 60 cell line panel screening assay (SRB), SN12C; format: cell-based; conditions: Homo sapiens, 48 h, read-out: Log10 TGI
SW-620 = assay: NCI 60 cell line panel screening assay (SRB), SW-620; format: cell-based; conditions: Homo sapiens; SW-620, colon cancer, 48 h; read-out: Log10 TGI
MOLT-4 [3] = conditions: MOLT-4, FIG. 6
U251 = assay: cells; format: cell-based; conditions: Homo sapiens, U-251; U251, CNS cancer, 48 h; read-out: Log10 TGI (converted)
MDA-MB435 = assay: NCI 60 cell line panel screening assay (SRB), MDA-MB435; format: cell-based; conditions: Homo sapiens, MDA-MB-435; printed MDA-MBA35, breast cancer, 48 h; read-out: Log10 GI50 (converted)
SNB-19 = assay: cells; format: cell-based; conditions: Homo sapiens; SNB-19, CNS cancer, 48 h; read-out: Log10 TGI
LOX IMVI = assay: cells; format: cell-based; conditions: Homo sapiens, melanoma, 48 h, read-out: Log10 TGI (converted)
KM12 = assay: cells; format: cell-based; conditions: Homo sapiens; KM12, colon cancer, 48 h; read-out: Log10 TGI
IGROVI = assay: NCI 60 cell line panel screening assay (SRB), IGROVI; format: cell-based; conditions: 48 h, read-out: Log10 TGI
NCI-H460 = assay: cells; format: cell-based; conditions: Homo sapiens, NCI-H460, non-small cell lung cancer, 48 h
SR = assay: cells; format: cell-based; conditions: Homo sapiens, leukemia, 48 h, read-out: Log10 TGI
OVCAR-3 = assay: cells; format: cell-based; conditions: Homo sapiens; OVCAR-3, ovarian cancer, 48 h; read-out: Log10 TGI (converted)
HL-60(TB) = assay: cells; format: cell-based; conditions: Homo sapiens, HL-60, 48 h, read-out: Log10 TGI
T-47D = assay: NCI 60 cell line panel screening assay (SRB), T-47D; conditions: Homo sapiens, T47D, 48 h, read-out: Log10 GI50 (converted)
OVCAR-5 = assay: cells; format: cell-based; conditions: Homo sapiens; OVCAR-5, ovarian cancer, 48 h; read-out: Log10 TGI (converted)
MALME-3M = assay: cells; format: cell-based; conditions: Homo sapiens, Malme-3M, 48 h, read-out: Log10 TGI
MOLT-4 [4] = assay: cells; conditions: Homo sapiens, MOLT-4, 48 h
HT29 = assay: cells; format: cell-based; conditions: Homo sapiens, HT-29; HT29, colon cancer, 48 h; read-out: Log10 GI50 (converted)
NCI-H522 = assay: cells; format: cell-based; conditions: Homo sapiens; NCI-H522, non-small cell lung cancer, 48 h; read-out: Log10 TGI (converted)
60 cell line panel = assay: NCI 60 cell line panel, whole panel; conditions: panel
786-0 = assay: cells; format: cell-based; conditions: Homo sapiens; 786-0, renal cancer, 48 h; read-out: Log10 TGI
MDA-N = assay: NCI 60 cell line panel screening assay (SRB), MDA-N; format: cell-based; conditions: Homo sapiens, breast cancer, 48 h, read-out: Log10 GI50 (converted)
RPMI-8226 = assay: NCI 60 cell line panel screening assay (SRB), RPMI-8226; format: cell-based; conditions: Homo sapiens, RPMI-8226, leukemia, 48 h
NCI-H322M = assay: cells; conditions: Homo sapiens, 48 h, read-out: Log10 TGI
OVCAR-8 = assay: cells; format: cell-based; conditions: Homo sapiens; OVCAR-8, ovarian cancer, 48 h; read-out: Log10 GI50 (converted)
BT-549 = assay: cells; format: cell-based; conditions: Homo sapiens, BT-549, breast cancer, 48 h
DU-145 = assay: cells; format: cell-based; conditions: Homo sapiens, DU-145, 48 h; read-out: Log10 TGI
[5] = read-out: Log10 GI50 (converted)
[6] = read-out: Log10 TGI (converted)

C[C@@H]1CC[C@H]2[C@@H](C)C(O)O[C@@H]3O[C@@]4(C)CC[C@@H]1[C@]32OO4 (some centres unmarked) [dihydroartemisinin]
half-life in plasma [1]: less than two

C=C1/C(=C\C=C2/CCC[C@]3(C)[C@@H]([C@H](C)CCCC(C)(C)O)CC[C@@H]23)C[C@@H](O)C[C@@H]1O [calcitriol, 1α, 25-dihydroxyvitamin D3]
viability of treated cells (PE cells): identical to control cells

CCO[C@H]1O[C@@H]2O[C@@]3(C)CC[C@H]4[C@H](C)CC[C@@H]([C@H]1C)[C@@]24OO3 [arteether]
conversion into dihydroartemisinin [2]: rapidly converted

CC(=O)O[C@H]1C(=O)[C@@]2(C)[C@H]([C@H](OC(=O)c3ccccc3)[C@]3(O)C[C@H](OC(=O)[C@H](O)[C@@H](NC(=O)c4ccccc4)c4ccccc4)C(C)=C1C3(C)C)[C@]1(OC(C)=O)CO[C@@H]1C[C@@H]2O [Paclitaxel, reference compound]
IC (TGI) (HOP-62): 15.8 µM | IC (TGI) (K-562): > 100 µM | GI50 (HCT-116; [5]): < 0.1 pM | IC (TGI) (HCT-116; [6]): 15.1 µM | IC (TGI) (CCRF-CEM): > 100 µM | IC (TGI) (MDA-MB231/ATCC): 14.5 µM | IC (TGI) (UACC-257): 30.2 µM | IC (TGI) (M14): 24 µM | IC (TGI) (PC-3): > 100 µM | GI50 (OVCAR-4; [5]): 10 µM | IC (TGI) (OVCAR-4; read-out: Log10 TGI): 64.6 µM | GI50 (HCT-15; [5]): 0.427 µM | IC (TGI) (HCT-15; read-out: Log10 TGI): > 100 µM | IC (TGI) (MCF7/ADR-RES): > 100 µM | IC (TGI) (SN12C): 51.3 µM | IC (TGI) (SW-620): > 100 µM | concentration for cytostasis (PG 0) (MOLT-4 [3]): greater than 10^-4 M | IC (TGI) (U251): 47.9 µM | GI50 (MDA-MB435): < 0.1 pM | IC (TGI) (SNB-19): > 100 µM | IC (TGI) (LOX IMVI): 22.4 µM | IC (TGI) (KM12): 43.7 µM | IC (TGI) (IGROVI): 64.6 µM | GI50 (NCI-H460; [5]): < 0.1 pM | IC (TGI) (NCI-H460; [6]): 12 µM | IC (TGI) (SR): > 100 µM | IC (TGI) (OVCAR-3): 28.2 µM | IC (TGI) (HL-60(TB)): > 29.5 µM | GI50 (T-47D): 0.000155 µM | IC (TGI) (OVCAR-5): 12 µM | IC (TGI) (MALME-3M): 34.7 µM | CC50 (MOLT-4 [4]; read-out: Log10 LC50 (converted)): > 100 µM | IC (TGI) (MOLT-4 [4]; read-out: Log10 TGI): > 100 µM | GI50 (HT29): < 0.1 pM | IC (TGI) (NCI-H522): 6.31 pM | Delta of Log10 LC50 (60 cell line panel): -4.06 | Delta of Log10 TGI (60 cell line panel): -4.54 | Range of Log10 TGI (60 cell line panel): 7.20 | IC (TGI) (786-0): > 100 µM | GI50 (MDA-N): < 0.1 pM | GI50 (RPMI-8226; [5]): < 0.1 pM | IC (TGI) (RPMI-8226; read-out: Log10 TGI): > 100 µM | IC (TGI) (NCI-H322M): 34.7 µM | GI50 (OVCAR-8): 0.0178 nM | GI50 (BT-549; [5]): 0.00049 µM | IC (TGI) (BT-549; [6]): 0.479 µM | IC (TGI) (DU-145): > 100 µM
